Data: patent publication US11478451B1, “Macrocyclic chlorine substituted indole derivatives” (Bayer Aktiengesellschaft, priority 2017, dated 2022)
Where a name gives a salt, the structure may show the parent alone. Read-outs that look alike come from different tables or passages of the source.

Tests used:
AMO-1 cells = assay: Antiproliferation assay (CellTiter-Glo, 72 h), AMO-1; type: cell-based; conditions: IC50, median, AMO-1, 72 h, read-out: Antiproli AMO-1 [M] median
How it was run: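 Treated cells sat 72 h in a humidified 37 °C incubator, outer wells unused, before CellTiter-Glo reagent and a 10 min wait preceded luminescence reading; identical measurement of a parallel day 0 plate defined time zero.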

HMC-1-8 cells = assay: Antiproliferation assay (CellTiter-Glo, 72 h), HMC-1-8; type: cell-based; conditions: IC50, median, HMC-1-8, 72 h, read-out: Antiproli HMC-1-8 [M] median
Procedure: (§1) Assessment of the Anti-Proliferative Effect of Compounds in Different Cell Lines
(§2) The impact of compounds on the proliferation of different cell lines was assessed using the CellTiter-Glo® Luminescent Cell Viability reagent from Promega (G7573).
(§3) In parallel, cells were plated in a reference (day 0) plate for time zero determination.
(§4) Rim wells were excluded. The cells were incubated for 72 h hours in a humidified incubator at 37° C. The day 0 plate was measured by adding 30 μL/well of CTG solution (CellTiter-Glo® Luminescent Cell Viability reagent, Promega G7573) to time zero wells in the reference plate followed by a 10 minutes incubation and luminescence reading at 0.1 ms. using the PHERAstar FS microplate reader (BMG Labtech).
(§5) After 72 h incubation, the treated plates were measured in the same way as the day 0 plate mentioned above.

SUDHL10 cells [1] = assay: Induction of cytotoxicity (CellTiter-Glo, 5 h), SUDHL10; conditions: SUDHL10, 5 h
SUDHL10 cells [2] = assay: Induction of caspase-3/7 activity (Caspase-Glo 3/7), SUDHL10; type: cell-based; conditions: EC50, median, SUDHL10, 3 h treatment
How it was run: (§6)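 Read-out: Caspase-Glo 3/7 signal, background-corrected against medium-only wells, taken after cells had been incubated with compounds for 3 h at 37 °C.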

SUDHL5 cells [3] = assay: Antiproliferation assay (CellTiter-Glo, 72 h), SUDHL5; type: cell-based; conditions: IC50, median, SUDHL5, 72 h, read-out: Antiproli SUDHL5 [M] (median)
Procedure: as §1, §2, §3, §4, §5

SUDHL5 cells [4] = assay: Induction of caspase-3/7 activity (Caspase-Glo 3/7), SUDHL5; type: cell-based; conditions: EC50, median, SUDHL5, 3 h treatment
How it was run: as §6

SUDHL5 cells [5] = assay: Induction of cytotoxicity (CellTiter-Glo, 5 h), SUDHL5; conditions: SUDHL5, 5 h
[6] = Homo sapiens, SU-DHL10, 5 h, read-out: Cytotox SUDHL10 [M] (median), IC50, median
[7] = read-out: Cytotox SUDHL10 [M] (median), IC50, median
[8] = read-out: Cytotox SUDHL5 [M] (median), IC50, median
[9] = Homo sapiens, SU-DHL-5, 5 h, read-out: Cytotox SUDHL5 [M] (median), IC50, median

| Structure (SMILES) | IC50 (AMO-1 cells; Homo sapiens, AMO1, 72 h) | IC50 (HMC-1-8 cells; 72 h) | IC50 (SUDHL10 cells [1]; [6]) | EC50 (SUDHL10 cells [2]; Homo sapiens, SU-DHL10, 3 h) | IC50 (SUDHL5 cells [3]; Homo sapiens, SU-DHL-5, 72 h) | IC50 (AMO-1 cells) | EC50 (SUDHL5 cells [4]) | EC50 (SUDHL10 cells [2]) | IC50 (SUDHL5 cells [5]; [8]) | IC50 (SUDHL5 cells [3]) | other results |
| --- | --- | --- | --- | --- | --- | --- | --- | --- | --- | --- | --- |
| CCc1c2c(nn1C)CN(CCC1CCOCC1)CCCCn1c(C(=O)O)c(CCCOc3cccc4cc(F)ccc34)c3ccc(Cl)c-2c31 (racemic) [Example 135, (rac)-4-chloro-3-ethyl-7-{3-[(6-fluoronaphthalen-1-yl)oxy]propyl}-2-methyl-14-[2-(oxan-4-yl)ethyl]-10,11,12,13,14,15-hexahydro-2H-pyrazolo[3′,4′:8,9][1,6]diazacycloundecino[10,11,1-hi]indole-8-carboxylic acid] | 1.2e-07 M | 8.7e-07 M | 1.5e-07 M | 140 nM | 1.2e-07 M | – | – | – | – | – | – |
| CCc1c2c(nn1C)COCC1(CCn3c(C(=O)O)c(CCCOc4cccc5cc(F)ccc45)c4ccc(Cl)c-2c43)CC1 [Example 110, (−)-4′-chloro-3′-ethyl-7′-{3-[(6-fluoronaphthalen-1-yl)oxy]propyl}-2′-methyl-2′,10′,11′,15′-tetrahydro-13′H-spiro[cyclopropane-1,12′-pyrazolo[4′,3′:9,10][1,6]oxazacycloundecino[8,7,6-hi]indole]-8′-carboxylic acid-N-ethylethanamine salt] | – | 1.4e-06 M | – | – | 2.1e-07 M | 3.5e-07 M | 120 nM | 160 nM | – | – | IC50 (SUDHL10 cells [1]; [7]): 2.8e-07 M |
| CCc1c2c(nn1C)COCC1CC1Cn1c(C(=O)O)c(CCCOc3cccc4cc(F)ccc34)c3ccc(Cl)c-2c31 (single isomer, unassigned; (+)) [Example 104, (+)-3-chloro-4-ethyl-14-{3-[(6-fluoronaphthalen-1-yl)oxy]propyl}-5-methyl-5,7,9a,10,10a,11-hexahydro-9H-cyclopropa[3,4]pyrazolo[4′,3′:9,10][1,6]oxazacycloundecino[8,7,6-hi]indole-13-carboxylic acid N-ethylethanamine salt] | – | – | – | – | 1e-06 M | 2.4e-06 M | 810 nM | 1500 nM | 9.7e-07 M | – | IC50 (HMC-1-8 cells): 8.5e-06 M |
| CCc1c2c(nn1C)CCCN(CC(F)F)CCn1c(C(=O)O)c(CCCOc3cccc4cc(F)ccc34)c3ccc(Cl)c-2c31 [Example 120, (−)-4-chloro-12-(2,2-difluoroethyl)-3-ethyl-7-{3-[(6-fluoronaphthalen-1-yl)oxy]propyl}-2-methyl-10,11,12,13,14,15-hexahydro-2H-pyrazolo[3′,4′:8,9][1,4]diazacycloundecino[10,11,1-hi]indole-8-carboxylic acid N-ethylethanamine salt] | – | – | – | – | – | – | 10000 nM | – | – | 7e-06 M | IC50 (HMC-1-8 cells): 7.1e-06 M |
| Cc1c2c(nn1C)COCC1CCC1Cn1c(C(=O)O)c(CCCOc3cccc4ccccc34)c3ccc(Cl)c-2c31 (single isomer, unassigned; stereoisomer 2) [Example 64] | 1.6e-06 M | 5.6e-06 M | – | – | 5e-07 M | – | 330 nM | – | – | – | IC50 (SUDHL5 cells [5]; [9]): 5.4e-07 M |
| CCc1c2c(nn1C)CN(C)CCCn1c(C(=O)O)c(CCCOc3cccc4cc(F)ccc34)c3ccc(Cl)c-2c31 (racemic) [Example 112, (rac)-12-chloro-11-ethyl-1-{3-[(6-fluoronaphthalen-1-yl)oxy]propyl}-7,10-dimethyl-4,5,6,7,8,10-hexahydropyrazolo[3′,4′:7,8][1,5]diazecino[9,10,1-hi]indole-2-carboxylic acid] | – | 7.1e-06 M | – | – | 1.5e-06 M | 9.1e-07 M | 600 nM | 860 nM | 6.1e-07 M | – | – |
| CCc1c2c(nn1C)CN(CC(F)F)CCCCn1c(C(=O)O)c(CCCOc3cccc4cc(F)ccc34)c3ccc(Cl)c-2c31 (racemic) [Example 62, (rac)-4-chloro-14-(2,2-difluoroethyl)-3-ethyl-7-{3-[(6-fluoronaphthalen-1-yl)oxy]propyl}-2-methyl-10,11,12,13,14,15-hexahydro-2H-pyrazolo[3′,4′:8,9][1,6]diazacycloundecino[10,11,1-hi]indole-8-carboxylic acid] | – | 2.2e-06 M | – | – | – | 2.2e-07 M | – | 380 nM | 3.1e-07 M | 3.4e-07 M | IC50 (SUDHL10 cells [1]; [7]): 3.6e-07 M |
| CCc1c2c(nn1C)CN(CC(F)(F)F)CCCCn1c(C(=O)O)c(CCCOc3cccc4cc(F)ccc34)c3ccc(Cl)c-2c31 (racemic) [Example 61, (rac) 4-chloro-3-ethyl-7-{3-[(6-fluoronaphthalen-1-yl)oxy]propyl}-2-methyl-14-(2,2,2-trifluo-roethyl)-10,11,12,13,14,15-hexahydro-2H-pyrazolo[3′,4′:8,9][1,6]diazacycloundecino[10,11,1-hi]indole-8-carboxylic acid] | 6.8e-07 M | 1.7e-06 M | 5.3e-07 M | 440 nM | 2.5e-07 M | – | – | – | – | – | IC50 (SUDHL5 cells [5]; [9]): 3.4e-07 M |
| CCc1c2c(nn1C)COCC(F)(F)CCn1c(C(=O)O)c(CCCOc3cccc4cc(F)ccc34)c3ccc(Cl)c-2c31 (single isomer, unassigned) [Example 86, (+)-4-chloro-3-ethyl-12,12-difluoro-7-{3-[(6-fluoronaphthalen-1-yl)oxy]propyl}-2-methyl-2,10,11,12,13,15-hexahydropyrazolo[4′,3′:9,10][1,6]oxazacycloundecino[8,7,6-hi]indole-8-carboxylic acid] | – | – | – | – | – | – | – | – | – | – | IC50 (HMC-1-8 cells; listed as 086): 6.4e-06 M; IC50 (SUDHL10 cells [1]; read-out: Cytotox SUDHL10 [M] (median), IC50, median, listed as 086): 9.7e-07 M; EC50 (SUDHL5 cells [4]; listed as 086): 470 nM; EC50 (SUDHL10 cells [2]; listed as 086): 620 nM; IC50 (SUDHL5 cells [3]; listed as 086): 9.3e-07 M; IC50 (SUDHL5 cells [5]; read-out: Cytotox SUDHL5 [M] (median), IC50, median, listed as 086): 6.3e-07 M |
| CCc1c2c(nn1C)COCC1(CCn3c(C(=O)O)c(CCCOc4cccc5cc(F)ccc45)c4ccc(Cl)c-2c43)CC1 (racemic) [Example 109, (rac)-4′-chloro-3′-ethyl-7′-{3-[(6-fluoronaphthalen-1-yl)oxy]propyl}-2′-methyl-2′,10′,11′,15′-tetrahydro-13′H-spiro[cyclopropane-1,12′-pyrazolo[4′,3′:9,10][1,6]oxazacycloundecino[8,7,6-hi]indole]-8′-carboxylic acid] | – | 4.3e-06 M | 2.8e-07 M | 290 nM | 5.5e-07 M | – | – | – | – | – | EC50 (SUDHL5 cells [4]; Homo sapiens, SU-DHL-5, 3 h): 440 nM; IC50 (SUDHL5 cells [5]; [9]): 5.9e-07 M |
| Cc1c2c(nn1C)COCCC(F)(F)Cn1c(C(=O)O)c(CCCOc3cccc4ccccc34)c3ccc(Cl)c-2c31 (racemic) [Example 68, (rac)-4-chloro-11,11-difluoro-2,3-dimethyl-7-[3-(1-naphthyloxy)propyl]-2,10,11,12,13,15-hexahydropyrazolo[4′,3′:9,10][1,6]oxazacycloundecino[8,7,6-hi]indole-8-carboxylic acid] | 2.6e-06 M | 7.9e-06 M | 3.3e-06 M | 3100 nM | 2.6e-06 M | – | – | – | – | – | EC50 (SUDHL5 cells [4]; Homo sapiens, SU-DHL-5, 3 h): 1400 nM |
| CCc1c2c(nn1C)COCC1CC1Cn1c(C(=O)O)c(CCCOc3cccc4cc(F)ccc34)c3ccc(Cl)c-2c31 (racemic) [Example 103, (rac)-3-chloro-4-ethyl-14-{3-[(6-fluoronaphthalen-1-yl)oxy]propyl}-5-methyl-5,7,9a,10,10a,11-hexahydro-9H-cyclopropa[3,4]pyrazolo[4′,3′:9,10][1,6]oxazacycloundecino[8,7,6-hi]indole-13-carboxylic acid] | – | 7.1e-06 M | – | – | – | 8.2e-07 M | – | 500 nM | 5.7e-07 M | 5.5e-07 M | IC50 (SUDHL10 cells [1]; [7]): 7e-07 M |
| Cc1c2c(nn1C)CN(CC(F)(F)F)CCCCn1c(C(=O)O)c(CCCOc3cccc4cc(F)ccc34)c3ccc(Cl)c-2c31 (single isomer, unassigned; enantiomer 2) [Example 60, 4-chloro-7-{3-[(6-fluoronaphthalen-1-yl)oxy]propyl}-2,3-dimethyl-14-(2,2,2-trifluoroethyl)-10,11,12,13,14,15-hexahydro-2H-pyrazolo[3′,4′:8,9][1,6]diazacycloundecino[10,11,1-hi]indole-8-carboxylic acid—Enantiomer 2] | – | 8.7e-06 M | – | – | – | – | 7600 nM | – | 6.9e-06 M | 3.9e-06 M | – |
